# Reference: ChEMBL document CHEMBL4251580, “Exploiting polypharmacology for improving therapeutic outcome of kinase inhibitors (KIs): An update of recent medicinal chemistry efforts” (Eur J Med Chem, 2018)
# How the values were obtained:
# [1] = target: Epidermal growth factor receptor (Homo sapiens, UniProt P00533); test: Inhibition of C-terminal His-tagged and N-terminal GST tagged human EGFR (668 to 1210 residues) expressed in baculovirus infected Sf9 cells using KHKKLAEGSAYEEV substrate peptide and gamma-[32P]ATP
# Chain of Epidermal growth factor receptor (P00533 whole entry, the tested form may be a part): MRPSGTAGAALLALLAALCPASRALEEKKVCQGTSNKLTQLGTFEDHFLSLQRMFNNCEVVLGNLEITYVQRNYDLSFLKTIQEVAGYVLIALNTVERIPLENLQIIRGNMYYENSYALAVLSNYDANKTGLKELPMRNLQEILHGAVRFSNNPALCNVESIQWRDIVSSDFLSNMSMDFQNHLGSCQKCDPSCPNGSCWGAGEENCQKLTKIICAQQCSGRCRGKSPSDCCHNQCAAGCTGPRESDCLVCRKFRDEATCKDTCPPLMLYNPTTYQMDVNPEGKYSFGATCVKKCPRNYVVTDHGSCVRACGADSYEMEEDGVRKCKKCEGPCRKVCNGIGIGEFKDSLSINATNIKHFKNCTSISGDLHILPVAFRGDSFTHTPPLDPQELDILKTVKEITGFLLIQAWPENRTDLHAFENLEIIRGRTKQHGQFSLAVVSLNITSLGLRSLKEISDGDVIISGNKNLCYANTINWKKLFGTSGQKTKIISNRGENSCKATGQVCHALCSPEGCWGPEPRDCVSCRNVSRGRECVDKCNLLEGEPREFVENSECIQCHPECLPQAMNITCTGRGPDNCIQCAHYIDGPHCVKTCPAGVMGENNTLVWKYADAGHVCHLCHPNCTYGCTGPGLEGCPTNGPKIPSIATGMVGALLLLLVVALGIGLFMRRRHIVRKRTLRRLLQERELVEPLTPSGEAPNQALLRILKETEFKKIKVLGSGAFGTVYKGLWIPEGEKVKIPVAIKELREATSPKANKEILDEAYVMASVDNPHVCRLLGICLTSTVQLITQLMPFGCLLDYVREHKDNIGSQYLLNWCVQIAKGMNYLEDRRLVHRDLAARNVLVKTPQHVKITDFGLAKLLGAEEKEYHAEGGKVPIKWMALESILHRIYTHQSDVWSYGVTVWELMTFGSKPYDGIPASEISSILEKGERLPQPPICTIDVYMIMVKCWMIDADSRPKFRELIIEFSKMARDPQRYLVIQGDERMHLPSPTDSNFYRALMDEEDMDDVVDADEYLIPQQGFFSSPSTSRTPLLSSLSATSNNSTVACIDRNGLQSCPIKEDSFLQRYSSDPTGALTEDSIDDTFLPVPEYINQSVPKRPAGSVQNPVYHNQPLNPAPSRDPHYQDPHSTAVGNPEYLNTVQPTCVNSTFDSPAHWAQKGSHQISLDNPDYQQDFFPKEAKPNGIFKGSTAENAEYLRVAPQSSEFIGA
# [2] = Inhibition of NF-kappaB (unknown origin) expressed in human U937 cells by luciferase reporter gene assay; assay type: cell-based; conditions: U-937
# MDA-MB-231 = test: Growth inhibition of human MDA-MB-231 cells incubated for 72 hrs by Cell-titer Glo luciferase-based assay; assay type: functional; conditions: MDA-MB-231, 72 h
compound,measurement,setting,value
Fc1cc(F)cc(NC(=S)Nc2ccc3ncnc(Nc4cccc(Br)c4)c3c2)c1,IC50,[1],60 nM
same,IC50,[2],300 nM
same,GI50,MDA-MB-231,1100 nM
